Reference: ChEMBL document CHEMBL5537201, “Discovery of Unique Bis-Substituted Aromatic Amide Derivatives as Novel Highly Potent Antibiotics for Combating Methicillin-Resistant Staphylococcus aureus (MRSA)” (J Med Chem, 2024)
Converted amounts (≈) assume the structure as drawn. The source made the active and inactive calls. No cut-off for these calls is given here.

How the values were obtained:
Staphylococcus aureus [1] = test: Antimicrobial activity against methicillin resistant Staphylococcus aureus clinical isolate MRS273 assessed as reduction in bacterial growth incubated for 24 hrs by two-fold broth dilution method; format: functional
Streptomyces albus = test: Antimicrobial activity against Streptomyces albus SHBC D11158 assessed as reduction in bacterial growth incubated for 24 hrs by two-fold broth dilution method; format: functional
Staphylococcus aureus [2] = test: Antimicrobial activity against methicillin resistant Staphylococcus aureus clinical isolate MRS70 assessed as reduction in bacterial growth incubated for 24 hrs by two-fold broth dilution method; format: functional
Staphylococcus aureus [3] = test: Antimicrobial activity against methicillin resistant Staphylococcus aureus clinical isolate MRS23 assessed as reduction in bacterial growth incubated for 24 hrs by two-fold broth dilution method; format: functional
Staphylococcus aureus [4] = test: Antimicrobial activity against methicillin resistant Staphylococcus aureus clinical isolate MRS1 assessed as reduction in bacterial growth incubated for 24 hrs by two-fold broth dilution method; format: functional
Staphylococcus aureus [5] = test: Antimicrobial activity against methicillin resistant Staphylococcus aureus clinical isolate MRS84 assessed as reduction in bacterial growth incubated for 24 hrs by two-fold broth dilution method; format: functional
Staphylococcus aureus [6] = test: Antimicrobial activity against methicillin resistant Staphylococcus aureus clinical isolate MRS108 assessed as reduction in bacterial growth incubated for 24 hrs by two-fold broth dilution method; format: functional
Staphylococcus aureus [7] = test: Antimicrobial activity against Staphylococcus aureus N315 assessed as reduction in bacterial growth incubated for 24 hrs by two-fold broth dilution method; format: functional
Staphylococcus aureus [8] = test: Antimicrobial activity against Staphylococcus aureus ATCC6538 assessed as reduction in bacterial growth incubated for 24 hrs by two-fold broth dilution method; format: functional
Staphylococcus aureus [9] = test: Antimicrobial activity against methicillin resistant Staphylococcus aureus clinical isolate MRS153 assessed as reduction in bacterial growth incubated for 24 hrs by two-fold broth dilution method; format: functional
Staphylococcus aureus [10] = test: Antimicrobial activity against methicillin resistant Staphylococcus aureus clinical isolate MRS152 assessed as reduction in bacterial growth incubated for 24 hrs by two-fold broth dilution method; format: functional
Staphylococcus aureus [11] = test: Antimicrobial activity against methicillin resistant Staphylococcus aureus clinical isolate MRS97 assessed as reduction in bacterial growth incubated for 24 hrs by two-fold broth dilution method; format: functional
Staphylococcus aureus [12] = test: Antimicrobial activity against methicillin resistant Staphylococcus aureus clinical isolate MRS121 assessed as reduction in bacterial growth incubated for 24 hrs by two-fold broth dilution method; format: functional
Staphylococcus hominis = test: Antimicrobial activity against methicillin-resistant Staphylococcus hominis assessed as reduction in bacterial growth incubated for 24 hrs by two-fold broth dilution method; format: functional
Staphylococcus aureus [13] = test: Antimicrobial activity against methicillin resistant Staphylococcus aureus clinical isolate MRS207 assessed as reduction in bacterial growth incubated for 24 hrs by two-fold broth dilution method; format: functional
Staphylococcus aureus [14] = test: Antimicrobial activity against methicillin resistant Staphylococcus aureus clinical isolate MRS200 assessed as reduction in bacterial growth incubated for 24 hrs by two-fold broth dilution method; format: functional
Staphylococcus aureus [15] = test: Induction of drug resistance in Staphylococcus aureus ATCC6538 assessed as fold change in MIC measured after 10 passages; format: functional
Staphylococcus aureus [16] = test: Bactericidal activity against Staphylococcus aureus ATCC6538 at 5 ug/ml measured upto 150 mins; format: functional, organism-based; conditions: dose 5.0 µg/ml
Staphylococcus aureus [17] = test: Bactericidal activity against norfloxacin-resistant Staphylococcus aureus ATCC6538 at 5 ug/ml measured upto 150 mins; format: functional, organism-based; conditions: dose 5.0 µg/ml
[18] = Selectivity index, ratio of IC50 for African green monkey Vero E6 cells to MIC for Staphylococcus aureus ATCC6538; format: toxicity; conditions: read-out: Selectivity Index
Staphylococcus aureus [19] = test: Bactericidal activity against Staphylococcus aureus ATCC6538 assessed as reduction in survival rate at 5 to 10 times MIC measured within 1 hr by colony counting method; format: functional, organism-based
Staphylococcus aureus [20] = test: Induction of drug resistance in Staphylococcus aureus ATCC6538 assessed as change in MIC measured after 10 passages; format: functional
[21] = Cytotoxicity against HEK293 cells assessed as reduction in cell viability measured after 24 hrs by CCK-8 method; format: toxicity, cell-based; conditions: human
[22] = Cytotoxicity against African green monkey Vero E6 cells assessed as reduction in cell viability measured after 24 hrs by CCK-8 method; format: toxicity, cell-based, Chlorocebus sabaeus, Vero C1008
[23] = Cytotoxicity against human HaCaT cells assessed as reduction in cell viability measured after 24 hrs by CCK-8 method; format: toxicity, cell-based
A549 = test: Cytotoxicity against human A549 cells assessed as reduction in cell viability measured after 24 hrs by CCK-8 method; format: functional, cell-based; conditions: A549, 24 h
HeLa = test: Cytotoxicity against human HeLa cells assessed as reduction in cell viability measured after 24 hrs by CCK-8 method; format: functional, cell-based
[24] = Selectivity index, ratio of HC50 for rabbit Red blood cell to MIC for Staphylococcus aureus ATCC6538; format: toxicity; conditions: red blood cells (erythrocytes), read-out: Selectivity Index
[25] = Hemolytic activity in rabbit Red blood cell assessed as hemolysis incubated for 1 hr by two-fold microdilution method; format: toxicity, cell-based, Oryctolagus cuniculus, Erythrocyte; conditions: red blood cells (erythrocytes)

| SMILES | MIC (Staphylococcus aureus [1]) | MIC (Streptomyces albus) | MIC (Staphylococcus aureus [2]) | MIC (Staphylococcus aureus [3]) | MIC (Staphylococcus aureus [4]) | MIC (Staphylococcus aureus [5]) | MIC (Staphylococcus aureus [6]) | MIC (Staphylococcus aureus [7]) | MIC (Staphylococcus aureus [8]) | MIC (Staphylococcus aureus [9]) | MIC (Staphylococcus aureus [10]) | MIC (Staphylococcus aureus [11]) | MIC (Staphylococcus aureus [12]) | MIC (Staphylococcus hominis) | MIC (Staphylococcus aureus [13]) | MIC (Staphylococcus aureus [14]) | selectivity ratio [18] | Activity (Staphylococcus aureus [20]) | IC50 at 24 h [21] | IC50 at 24 h [22] | further results |
| --- | --- | --- | --- | --- | --- | --- | --- | --- | --- | --- | --- | --- | --- | --- | --- | --- | --- | --- | --- | --- | --- |
| COc1ccc(-c2ccc(O)c(N(Cc3cc4ccccc4s3)C(=O)CCC(F)(F)F)c2)cc1 | 16 µg/mL (≈ 33 µM) | > 32 µg/mL | > 16 µg/mL | > 16 µg/mL | > 16 µg/mL | > 16 µg/mL | > 16 µg/mL | 1 µg/mL (≈ 2.06 µM) | 1 µg/mL (≈ 2.06 µM) | 16 µg/mL (≈ 33 µM) | > 16 µg/mL | 16 µg/mL (≈ 33 µM) | 16 µg/mL (≈ 33 µM) | > 32 µg/mL | > 16 µg/mL | 16 µg/mL (≈ 33 µM) |  |  |  |  |  |
| CCn1cc(C(=O)O)c(=O)c2cc(F)c(N3CCNCC3)cc21 |  |  |  |  |  |  |  |  |  |  |  |  |  |  |  |  |  |  |  |  | fold change (FC) (Staphylococcus aureus [15]): 256; Activity (Staphylococcus aureus [16]): Active; Activity (Staphylococcus aureus [17]): inactive |
| COc1cccc(-c2ccc(O)c(N(Cc3cc4ccccc4s3)C(=O)CCC(F)(F)F)c2)c1 | 16 µg/mL (≈ 33 µM) | > 32 µg/mL | > 16 µg/mL | 6 µg/mL (≈ 12.4 µM) | > 16 µg/mL | 16 µg/mL (≈ 33 µM) | 6 µg/mL (≈ 12.4 µM) | 1 µg/mL (≈ 2.06 µM) | 1 µg/mL (≈ 2.06 µM) | > 16 µg/mL | > 16 µg/mL | 6 µg/mL (≈ 12.4 µM) | > 16 µg/mL | > 32 µg/mL | > 16 µg/mL | > 16 µg/mL |  |  |  |  |  |
| O=C(CCC(F)(F)F)N(Cc1cc2ccccc2s1)c1cc(-c2cccc(C(F)(F)F)c2)ccc1O | 3 µg/mL (≈ 5.73 µM) | 2 µg/mL (≈ 3.82 µM) | 6 µg/mL (≈ 11.5 µM) | 6 µg/mL (≈ 11.5 µM) | 3 µg/mL (≈ 5.73 µM) | 3 µg/mL (≈ 5.73 µM) | 6 µg/mL (≈ 11.5 µM) | 2 µg/mL (≈ 3.82 µM) | 1 µg/mL (≈ 1.91 µM) | 6 µg/mL (≈ 11.5 µM) | > 16 µg/mL | 3 µg/mL (≈ 5.73 µM) | 3 µg/mL (≈ 5.73 µM) | 2 µg/mL (≈ 3.82 µM) | 6 µg/mL (≈ 11.5 µM) | 6 µg/mL (≈ 11.5 µM) | 20 | inactive | 12.2 µg/mL (≈ 23.4 µM) | 20.3 µg/mL (≈ 38.8 µM) | Activity (Staphylococcus aureus [19]): Active; IC50 at 24 h [23]: 13 µg/mL (≈ 24.8 µM); IC50 (A549): 12.5 µg/mL (≈ 23.9 µM); IC50 (HeLa): 13.4 µg/mL (≈ 25.5 µM); selectivity ratio [24]: > 1000; HC50 at 1 h [25]: 3280 µg/mL |
| O=C(CCC(F)(F)F)N(Cc1cc2ccccc2s1)c1cc(-c2ccc(Cl)cc2)ccc1O | 16 µg/mL (≈ 32.7 µM) | 4 µg/mL (≈ 8.16 µM) | 6 µg/mL (≈ 12.2 µM) | 16 µg/mL (≈ 32.7 µM) | 6 µg/mL (≈ 12.2 µM) | 3 µg/mL (≈ 6.12 µM) | 6 µg/mL (≈ 12.2 µM) | 1 µg/mL (≈ 2.04 µM) | 1 µg/mL (≈ 2.04 µM) | 6 µg/mL (≈ 12.2 µM) | 6 µg/mL (≈ 12.2 µM) | 3 µg/mL (≈ 6.12 µM) | 3 µg/mL (≈ 6.12 µM) | 4 µg/mL (≈ 8.16 µM) | 16 µg/mL (≈ 32.7 µM) | 16 µg/mL (≈ 32.7 µM) | 21 | Active | > 25 µg/mL | 21.5 µg/mL (≈ 43.8 µM) | IC50 at 24 h [23]: 13.8 µg/mL (≈ 28.2 µM); IC50 (A549): 16.2 µg/mL (≈ 33.1 µM); IC50 (HeLa): 22.8 µg/mL (≈ 46.6 µM); selectivity ratio [24]: > 1000; HC50 at 1 h [25]: 1920 µg/mL |
